Measured values as given in patent US7968526B2, “Antisense oligonucleotides directed to ribonucleotide reductase R2 and uses thereof in the treatment of cancer” (Lorus Therapeutics Inc., priority 2003, dated 2011).

Legend:
[1] = test system: HT-29 human colon cancer cells; test: HT-29 colon tumour xenograft in nude mice, combination with CPT-11 (1.2); type: in vivo, human cells in mice; conditions: HT-29 (colon), CD-1; SEQ ID NO:1 10 mg/kg i.v. every other day; CPT-11 20 mg/kg i.p. days 7-12
Description: All treatments were stopped at day 22. […] All treatments were stopped at day 32. […] All treatments were stopped at day 36.

[2] = test system: LS513 multi-drug resistant colon carcinoma cells; test: LS513 multi-drug resistant colon carcinoma xenograft in SCID mice, combination with CPT-11 (2.8); type: in vivo, human cells in mice; conditions: LS513 (colon) multi-drug resistant (CPT-11 sensitive), SCID; SEQ ID NO:1 10 mg/kg i.v. every other day; CPT-11 20 mg/kg/day i.p. 5 days
Procedure: (§1) BxPC-3 is a gemcitabine resistant call line. […] Gemcitabine was administered intravenously every three days at a dose of 100 mg/kg. Antitumour activities were estimated by the inhibition of tumour volume, which was measured with caliper. Each point represents mean tumour volume calculated from 10 animals per experimental group. […] Hela S3 is a hydroxyurea resistant cell line. […] Hydroxyurea was administered intraperitoneally every day at a dose of 250 mg/kg for 10 days. Cisplatin was administered intravenously once a week for three weeks at a dose of 4 mg/kg. Antitumour activities were estimated by the inhibition of tumour volume, which was measured with caliper. Each point represents mean tumour volume calculated from 10 animals per experimental group. […] Cisplatin was administered intravenously once a week for three weeks at a dose of 4 mg/kg. Taxol was administered intravenously once a week for three weeks at a dose of 10 mg/kg. Antitumour activities were estimated by the inhibition of tumour volume, which was measured with caliper. Each point represents mean tumour volume calculated from 10 animals per experimental group. […] Taxol was administered i.p. once a week at a dose of 10 mg/kg. Antitumour activities were estimated by the inhibition of tumour volume (FIG. 12A), which was measured with calipers. Each point represents mean tumour volume calculated from 10 animals per experimental group. […] Antitumour activities were estimated by the inhibition of tumour volume, which was measured with caliper. Each point represents mean tumour volume calculated from 9-10 animals per experimental group. […] Antitumour activities were estimated by the inhibition of tumour volume, which was measured with caliper. Each point represents mean tumour volume calculated from 10 animals per experimental group. […] Anti-tumour activity was estimated by the inhibition of tumour volume, which was measured with caliper. Each point represents mean tumour volume calculated from 10 animals per experimental group. […] Antitumour activities were estimated by the inhibition of tumour volume, which was measured with caliper. […]

[3] = test system: MDA-CDDP-S4 human in vivo-selected Cisplatin-resistant breast adenocarcinoma cells; test: MDA-CDDP-S4 Cisplatin-resistant breast adenocarcinoma, fat pad, SCID mice (2.3); set-up: species or system human cells in mice
Procedure: (§2) BxPC-3 is a gemcitabine resistant call line. […] Gemcitabine was administered intravenously every three days at a dose of 100 mg/kg. Antitumour activities were estimated by the inhibition of tumour volume, which was measured with caliper. Each point represents mean tumour volume calculated from 10 animals per experimental group. […] Hela S3 is a hydroxyurea resistant cell line. […] Hydroxyurea was administered intraperitoneally every day at a dose of 250 mg/kg for 10 days. Cisplatin was administered intravenously once a week for three weeks at a dose of 4 mg/kg. Antitumour activities were estimated by the inhibition of tumour volume, which was measured with caliper. Each point represents mean tumour volume calculated from 10 animals per experimental group. […] Cisplatin was administered intravenously once a week for three weeks at a dose of 4 mg/kg. Taxol was administered intravenously once a week for three weeks at a dose of 10 mg/kg. Antitumour activities were estimated by the inhibition of tumour volume, which was measured with caliper. Each point represents mean tumour volume calculated from 10 animals per experimental group. […] Taxol was administered i.p. once a week at a dose of 10 mg/kg. Antitumour activities were estimated by the inhibition of tumour volume (FIG. 12A), which was measured with calipers. Each point represents mean tumour volume calculated from 10 animals per experimental group. Animals were sacrificed and tumour weights taken at the end of the study (FIG. 12C). […] Cisplatin was administered intravenously once a week for four weeks at a dose of 4 mg/kg. Taxol was administered intravenously once a week for four weeks at a dose of 20 mg/kg. Antitumour activities were estimated by the inhibition of tumour volume, which was measured with caliper. Each point represents mean tumour volume calculated from 9-10 animals per experimental group. […] Cisplatin was administered intravenously once a week for four weeks at a dose of 4 mg/kg. Antitumour activities were estimated by the inhibition of tumour volume, which was measured with caliper. Each point represents mean tumour volume calculated from 10 animals per experimental group. At the end of the study the animals were sacrificed and tumours weighed. […] Taxol was administered i.p. once a week at a dose of 10 mg/kg. Anti-tumour activity was estimated by the inhibition of tumour volume, which was measured with caliper. Each point represents mean tumour volume calculated from 10 animals per experimental group. In addition animals were sacrificed and tumour weights taken at the end of the study. […] CPT-11 was administered i.p. for 5 days at a dose of 20 mg/kg/day. Antitumour activities were estimated by the inhibition of tumour volume, which was measured with caliper. Each point represents mean tumour volume calculated from 10 animals per experimental group. Tumour weights were measured after animals were sacrificed at the end of the treatment. These cells are not resistant to CPT-11 which was used as a positive control.

[4] = test system: Hela S3 human cervix epitheloid carcinoma cells; test: Hela S3 hydroxyurea resistant cervix carcinoma xenograft in SCID mice; type: in vivo, human cells in mice; conditions: Hela S3 (cervix), hydroxyurea resistant, SCID; SEQ ID NO:1 10 mg/kg i.v. every other day 6 times; Hydroxyurea 250 mg/kg i.p. daily 10 days; Cisplatin 4 mg/kg i.v. weekly x3
Procedure: as §2, with “12C). […] The effects of combined treatment were greater than either treatment alone.” for “12C).”

[5] = test system: SK-OV-3 human ovary adenocarcinoma cells; test: SK-OV-3 ovary tumour xenograft in CD-1 nude mice, combination with taxol or cisplatin (1.8); type: in vivo, human cells in mice; conditions: SK-OV-3 (ovary), CD-1; SEQ ID NO:1 10 mg/kg i.v. every other day 17 times; Taxol 10 mg/kg weekly; Cisplatin 4 mg/kg weekly
Procedure: After 52 days the mice were sacrificed and the tumours weighed. […] Mitoxantrone was administered intravenously once at the beginning of the treatments at a dose of 2 mg/kg (FIG. 4A) or once a week for four weeks at a reduced dose of 0.8 mg/kg (FIG. 4B). All treatments were stopped at day 50 (FIG. 4A) or 48 (FIG. 4B), respectively. […] Mitoxantrone was administered intravenously once at the beginning of the treatments at a dose of 2 mg/kg (FIG. 5A) or once a week for four weeks at a reduced dose of 0.8 mg/kg (FIG. 5B). All treatments were stopped at day 42 (FIG. 5A) or 38 (FIG. 5B), respectively. […] A2058 is a metastatic melanoma cell line. […] All treatments were stopped at day 24. […] Taxol was administered intravenously once a week at a dose of 10 mg/kg for three (FIG. 7A) or four weeks (FIG. 7C). Doxorubicin was administered intravenously once a week at a dose of 5 mg/kg for first three weeks (FIG. 7A) or for two weeks (FIG. 7C). All treatments were stopped at day 33 (FIG. 7A) or at day 26 (FIG. 7C), respectively. […] In FIG. 7C, antitumour activities were estimated by the inhibition of tumour volume, which was measured with calipers. Each point represents mean tumour volume calculated from 10 animals per experimental group. […] Taxol was administered intravenously once a week for first three weeks and intraperitoneally once a week for next two weeks at a dose of 10 mg/kg. Cisplatin was administered intravenously once a week for first three weeks and intraperitoneally once a week for next two weeks at a dose of 4 mg/kg. All treatments were stopped at day 40. Antitumour activities were estimated by the inhibition of tumour volume, which was measured with caliper. Each point represents mean tumour volume calculated from 9 animals per experimental group.

[6] = test system: MDA-MB435-To.1 human Taxol-resistant breast adenocarcinoma cells; test: MDA-MB435-To.1 Taxol-resistant breast adenocarcinoma, fat pad, CB-17 SCID mice, combination with Cisplatin (2.6); type: in vivo, human cells in mice; conditions: MDA-MB435-To.1 (breast), Taxol resistant, CB-17/SCID; SEQ ID NO:1 10 mg/kg i.v. every other day; Cisplatin 4 mg/kg i.v. weekly x4
Procedure: as §1

[7] = test system: MDA-MB435-To.1 human Taxol-resistant breast adenocarcinoma cells; test: MDA-MB435-To.1 Taxol-resistant breast adenocarcinoma, fat pad, SCID mice (2.5); type: in vivo, human cells in mice; conditions: MDA-MB435-To.1 (breast), Taxol resistant, SCID; SEQ ID NO:1 10 mg/kg i.v. every other day 15 times; Taxol 20 mg/kg, Cisplatin 4 mg/kg i.v. weekly x4
Procedure: as §2

Structure (SMILES)	Tumour weight as % of saline control [1] [%]	Tumour weight as % of saline control [2] [%]	Tumour weight as % of saline control ([3]; MDA-CDDP-S4 (breast), Cisplatin resistant, SCID, SEQ ID NO:1 10 mg/kg i.v. every other day 9 times, Taxol 10 mg/kg, Cisplatin 4 mg/kg i.v. weekly x3) [%]	Antitumour effect (FIG. 11) ([3]; MDA-CDDP-S4 Cisplatin-resistant, SCID mice, SEQ ID NO:1 10 mg/kg i.v. every other day, Cisplatin 4 mg/kg, Taxol 10 mg/kg i.v. weekly)	Tumour weight as % of saline control [4] [%]	tumour volume data as percentage of saline control [5] [%]	Tumour weight as % of saline control [6] [%]	Tumour weight as % of saline control [7] [%]
CCc1c2c(nc3ccc(OC(=O)N4CCC(N5CCCCC5)CC4)cc13)-c1cc3c(c(=O)n1C2)COC(=O)[C@]3(O)CC [CPT-11, irinotecan, reference compound]	36	47	–	–	–	–	–	–
N.N.[Cl][Pt][Cl] [Cisplatin, reference compound]	–	–	78	ineffective against Cisplatin-resistant tumour	63	67	56	69
